Reference: ChEMBL document CHEMBL1201862, “PubChem BioAssay data set” (2004)
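Where inhibition never reached the appropriate level, the endpoint shown equals the highest concentration tested. Otherwise, values were interpolated linearly from a five-concentration, 48-hour dose response in 96-well plates. GI50 marks 50% less growth.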 The source made the active and inactive calls. Rule as the data show it: active = GI50 up to about 1.1 µM and inactive = higher.

Assays:
Assay in all cases: inhibition of tumour cell growth, NCI panel, 48 h
[1] = system: 786-0
[2] = system: A498
[3] = system: A549
[4] = system: ACHN
[5] = system: CAKI-1
[6] = system: CCRF-CEM
[7] = system: COLO 205
[8] = system: DLD-1
[9] = system: DMS-114
[10] = system: EKVX
[11] = system: HCC 2998
[12] = system: HL-60
[13] = system: HOP-62
[14] = system: HOP-92
[15] = system: HT-29
[16] = system: IGROV-1
[17] = system: K562
[18] = system: KM-20L2
[19] = system: KM12
[20] = system: LOX IMVI
[21] = system: LXFL 529
[22] = system: M14
[23] = system: M19-MEL
[24] = system: MOLT-4
[25] = system: Malme-3M
[26] = system: NCI-H226
[27] = system: NCI-H23
[28] = system: NCI-H460
[29] = system: NCI-H522
[30] = system: OVCAR-3
[31] = system: OVCAR-4
[32] = system: OVCAR-5
[33] = system: OVCAR-8
[34] = system: RPMI-8226
[35] = system: RXF 393
[36] = system: SF-268
[37] = system: SF-295
[38] = system: SF-539
[39] = system: SK-MEL-28
[40] = system: SK-MEL-2
[41] = system: SK-MEL-5
[42] = system: SK-OV-3
[43] = system: SN12C
[44] = system: SNB-19
[45] = system: SNB-75
[46] = system: SNB-78
[47] = system: SW-620
[48] = system: TK-10
[49] = system: U-251
[50] = system: UACC-257
[51] = system: UO-31
[52] = system: XF498
[53] = system: DMS-273
[54] = system: HCT-116
[55] = system: HCT-15
[56] = system: HOP-18
[57] = system: UACC-62

## COc1cc(C2C(C(=O)Nc3ccc(Cl)c(Cl)c3)=C(C)NC(C)=C2C(=O)Nc2ccc(Cl)c(Cl)c2)ccc1O
[1]
  GI50: 12.7 µM (inactive)
[2]
  GI50: 12.2 µM (inactive)
[3]
  GI50: 12.8 µM (inactive)
[4]
  GI50: 10.8 µM (inactive)
[5]
  GI50: 14 µM (inactive)
[6]
  GI50: 3.26 µM (inactive)
[7]
  GI50: 13.3 µM (inactive)
[8]
  GI50: 10.6 µM (inactive)
[9]
  GI50: 6.49 µM (inactive)
[10]
  GI50: 10.3 µM (inactive)
[11]
  GI50: 11.4 µM (inactive)
[12]
  GI50: 4.38 µM (inactive)
[13]
  GI50: 11 µM (inactive)
[14]
  GI50: 2.6 µM (inactive)
[15]
  GI50: 15.1 µM (inactive)
[16]
  GI50: 14.2 µM (inactive)
[17]
  GI50: 6.68 µM (inactive)
[18]
  GI50: 19.8 µM (inactive)
[19]
  GI50: 11.7 µM (inactive)
[20]
  GI50: 11.4 µM (inactive)
[21]
  GI50: 9.27 µM (inactive)
[22]
  GI50: 12.6 µM (inactive)
[23]
  GI50: 14.5 µM (inactive)
[24]
  GI50: 4.31 µM (inactive)
[25]
  GI50: 12.6 µM (inactive)
[26]
  GI50: 16.7 µM (inactive)
[27]
  GI50: 12.5 µM (inactive)
[28]
  GI50: 12.8 µM (inactive)
[29]
  GI50: 3.65 µM (inactive)
[30]
  GI50: 9.82 µM (inactive)
[31]
  GI50: 5.3 µM (inactive)
[32]
  GI50: 19.4 µM (inactive)
[33]
  GI50: 13.9 µM (inactive)
[34]
  GI50: 3.89 µM (inactive)
[35]
  GI50: 2.64 µM (inactive)
[36]
  GI50: 11.7 µM (inactive)
[37]
  GI50: 18.4 µM (inactive)
[38]
  GI50: 10.2 µM (inactive)
[39]
  GI50: 13.9 µM (inactive)
[40]
  GI50: 8.17 µM (inactive)
[41]
  GI50: 12.2 µM (inactive)
[42]
  GI50: 14.8 µM (inactive)
[43]
  GI50: 12.3 µM (inactive)
[44]
  GI50: 12.3 µM (inactive)
[45]
  GI50: 10.3 µM (inactive)
[46]
  GI50: 14.9 µM (inactive)
[47]
  GI50: 12.3 µM (inactive)
[48]
  GI50: 19.1 µM (inactive)
[49]
  GI50: 13.9 µM (inactive)
[50]
  GI50: 13.8 µM (inactive)
[51]
  GI50: 12 µM (inactive)
[52]
  GI50: 17.4 µM (inactive)

## O=c1[nH]c(C2CCCCC2)nc2c(Cl)cccc12
[1]
  GI50: > 100 µM (inactive)
[2]
  GI50: > 100 µM (inactive)
[3]
  GI50: > 100 µM (inactive)
[4]
  GI50: > 100 µM (inactive)
[5]
  GI50: > 100 µM (inactive)
[6]
  GI50: > 100 µM (inactive)
[7]
  GI50: > 100 µM (inactive)
[8]
  GI50: > 100 µM (inactive)
[9]
  GI50: > 100 µM (inactive)
[53]
  GI50: > 100 µM (inactive)
[10]
  GI50: 26.1 µM (inactive)
[11]
  GI50: > 100 µM (inactive)
[54]
  GI50: > 100 µM (inactive)
[55]
  GI50: > 100 µM
[12]
  GI50: > 100 µM (inactive)
[56]
  GI50: > 100 µM (inactive)
[13]
  GI50: > 100 µM (inactive)
[14]
  GI50: > 100 µM (inactive)
[15]
  GI50: > 100 µM (inactive)
[16]
  GI50: > 100 µM (inactive)
[17]
  GI50: > 100 µM (inactive)
[18]
  GI50: > 100 µM (inactive)
[19]
  GI50: > 100 µM (inactive)
[21]
  GI50: > 100 µM (inactive)
[22]
  GI50: > 100 µM (inactive)
[23]
  GI50: > 100 µM (inactive)
[25]
  GI50: > 100 µM (inactive)
[26]
  GI50: > 100 µM (inactive)
[27]
  GI50: > 100 µM (inactive)
[28]
  GI50: > 100 µM (inactive)
[29]
  GI50: > 100 µM (inactive)
[30]
  GI50: > 100 µM (inactive)
[31]
  GI50: > 100 µM (inactive)
[32]
  GI50: > 100 µM (inactive)
[33]
  GI50: > 100 µM (inactive)
[35]
  GI50: > 100 µM (inactive)
[36]
  GI50: > 100 µM (inactive)
[37]
  GI50: > 100 µM (inactive)
[38]
  GI50: > 100 µM (inactive)
[39]
  GI50: > 100 µM (inactive)
[40]
  GI50: > 100 µM (inactive)
[41]
  GI50: > 100 µM (inactive)
[42]
  GI50: > 100 µM (inactive)
[43]
  GI50: > 100 µM (inactive)
[44]
  GI50: > 100 µM (inactive)
[45]
  GI50: > 100 µM (inactive)
[46]
  GI50: > 100 µM (inactive)
[47]
  GI50: > 100 µM (inactive)
[48]
  GI50: > 100 µM (inactive)
[49]
  GI50: > 100 µM (inactive)
[50]
  GI50: > 100 µM (inactive)
[57]
  GI50: > 100 µM (inactive)
[51]
  GI50: > 100 µM (inactive)
[52]
  GI50: > 100 µM (inactive)
